These molecules were tested against T1, GAβ-dependent amyloid fibril formation (Human Aβ1-40 + GM1-containing liposome) (Homo sapiens, UniProt P05067) (assay: Thioflavin T (ThT) assay of GAβ-dependent amyloid fibril formation (Aβ1-40 with GM1-containing liposome)). Settings: @25 μM; read-out: ThT Inhibitory activity (% inhibition).
T1 construct: Human Aβ1-40 (cat. #4307-v, prepared by Peptide Institute); purchased Peptide Institute 4307-v
Type: biochemical
Procedure, shortened: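 Human Aβ1-40 (75 μM stock) pre-incubated 10 min at room temperature with compound (75 or 15 μM solution), then GM1-containing cholesterol/sphingomyelin liposome added and incubated 37° C, 18 hours. Fibrils quantified by ThT fluorescence (ex 430/em 490 nm, pH 8.5 glycine buffer); inhibition as ratio to compound-free control.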

T1 sequence (P05067 672-711 limits assumed): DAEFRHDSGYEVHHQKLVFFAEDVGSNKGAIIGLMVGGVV

inhibition at 25 µM | SMILES
80% | C[C@@H](O)[C@H](NC(=O)c1ccc(Cl)cc1)c1nc(-c2ccc(OC(F)(F)F)cc2)no1 [Compound 80, 4-chloro-N-((1S,2R)-2-hydroxy-1-[3-{4-(trifluoro-methoxy)phenyl}-1,2,4-oxadiazol-5-yl]propyl) benzamide]
61% | O=C(N[C@@H](CO)c1nc(-c2cccs2)no1)c1ccc(F)cc1 [Compound 178, 4-fluoro-N-[(1S)-2-hydroxy-1-[3-(thiophen-2-yl)-1,2,4-oxadiazol-5-yl]ethyl]benzamide]
64% | O=C(NC(CO)c1nc(-c2ccc(C(F)(F)F)cc2)no1)c1cc2ccccc2[nH]1 (stereo not drawn) [Compound 182, N-(2-hydroxy-1-{3-[4-(trifluoromethyl)phenyl]-1,2,4-oxadiazol-5-yl}ethyl)-1H-indole-2-carboxamide]
59% | O=C(N[C@@H](CO)c1nc(-c2cccc(C(F)(F)F)c2)no1)c1ccc(F)c(Cl)c1 [Compound 242, 3-chloro-4-fluoro-N-[(1S)-2-hydroxy-1-{3-[3-(trifluoromethyl)phenyl]-1,2,4-oxadiazol-5-yl}ethyl]benzamide]

Same assay, conditions: final concentration of the compound 25 μM; ratio of ThT fluorescence intensity with/without compound; 37° C. for 18 hours; read-out: inhibition rate against amyloid fibril formation (inhibitory activity on a scale of A to C)

inhibition at 25 µM | SMILES
> 80% | COc1ccc(-c2noc([C@@H](NC(=O)c3ccc(Cl)cc3)[C@@H](C)O)n2)cc1 [Compound 132, 4-chloro-N-((1S,2R)-2-hydroxy-1-(3-(4-methoxy-phenyl)-1,2,4-oxadiazol-5-yl)propyl)benzamide]

Same assay, conditions: inhibition rate against amyloid fibril formation, final concentration of the compound 25 μM; read-out: Inhibitory activity ABC evaluation

SMILES | inhibition at 25 µM
C[C@@H](O)[C@H](NC(=O)c1ccc(Cl)cc1)c1nc(-c2ccc(OC(F)(F)F)cc2)no1 [Compound 80, 4-chloro-N-((1S,2R)-2-hydroxy-1-[3-{4-(trifluoro-methoxy)phenyl}-1,2,4-oxadiazol-5-yl]propyl) benzamide] | > 80%
O=C1CC(c2nc(-c3ccncc3)no2)CN1c1ccc(Cl)cc1 (stereo not drawn) [Compound 44, 1-(4-chlorophenyl)-4-{3-(pyridin-4-yl)-1,2,4-oxadiazol-5-yl} pyrrolidin-2-one] | < 40%
CCN(C(=O)CCc1nc(-c2ccc(OC)cc2)no1)c1cccc(Cl)c1 [Compound 7, N-(3-chlorophenyl)-N-ethyl-3-{3-(4-methoxyphenyl)-1,2,4-oxadiazol-5-yl}propanamide] | 40 to 80%
COc1ccc(-c2noc([C@@H](NC(=O)c3ccc(Cl)cc3)[C@@H](C)O)n2)cc1 [Compound 132, 4-chloro-N-((1S,2R)-2-hydroxy-1-(3-(4-methoxy-phenyl)-1,2,4-oxadiazol-5-yl)propyl)benzamide] | > 80%
CN(Cc1cccc(F)c1)C(=O)CCc1nc(-c2ccc(O)cc2)no1 [Compound 14, N-(3-fluorobenzyl)-3-{3-(4-hydroxyphenyl)-1,2,4-oxadiazol-5-yl}-N-methylpropanamide] | < 40%
CN(C(=O)CCc1nc(-c2ccc(O)cc2)no1)c1cccc(Cl)c1 [Compound 13, N-(3-chloropbenyl)-3-{3-(4-hydroxyphenyl)-1,2,4-oxadiazol-5-yl}-N-methylpropanamide] | 40 to 80%
O=C1CC(c2nc(-c3ccc(O)cc3)no2)CN1c1ccc(Cl)cc1 (stereo not drawn) [Compound 41, 1-(4-chlorophenyl)-4-{3-(4-hydroxyphenyl)-1,2,4-oxadiazol-5-yl}pyrrolidin-2-one] | 40 to 80%
C[Si](C)(C)c1ccc(-c2noc([C@H](CO)NC(=O)c3ccc(F)cc3)n2)cc1 [Compound 224, 4-fluoro-N-[(1S)-2-hydroxy-1-{3-[4-(trimethylsilyl)phenyl]-1,2,4-oxadiazol-5-yl}ethyl]benzamide] | > 80%
O=C1CC(c2nc(-c3ccc(OC(F)(F)F)cc3)no2)CN1Cc1ccc(Cl)cc1 (stereo not drawn) [Compound 64, 1-(4-chlorobenzyl)-4-{3-[4-(trifluoromethoxy)phenyl]-1,2,4-oxadiazol-5-yl}pyrrolidin-2-one] | 40 to 80%
O=C1CC(c2nc(-c3ccc(O)c(F)c3)no2)CN1c1ccc(Cl)cc1 (stereo not drawn) [Compound 74, 1-(4-chloro-phenyl)-4-{3-(3-fluoro-4-hydroxyphenyl)-1,2,4-oxadiazol-5-yl}pyrrolidin-2-one] | 40 to 80%
N[C@H](Cc1c[nH]c2ccccc12)c1nnc(-c2ccc(OC(F)(F)F)cc2)o1 [Compound 114, (R)-2-(1H-indol-3-yl)-1-(5-(4-(trifluoro-methoxy)phenyl)-1,3,4-oxadiazol-2-yl) ethan-1-amine] | > 80%
O=C(Nc1ccc(Cl)cc1)N[C@@H](CO)c1nc(-c2ccc(OC(F)(F)F)cc2)no1 [Compound 95, (S)-1-(4-chloro-phenyl)-3-(2-hydroxy-1-[3-{4-(trifluoromethoxy)phenyl}-1,2,4-oxadiazol-5-yl]ethyl)urea] | < 40%
C=C(NC(=O)c1ccc(Cl)cc1)c1nnc(-c2ccc(OC(F)(F)F)cc2)o1 [Compound 115, 4-chloro-N-(1-(5-(4-(trifluoromethoxy)phenyl)-1,3,4-oxadiazol-2-yl)vinyl)benzamide] | < 40%
O=C1CC(c2nc(-c3cccc(OC(F)(F)F)c3)no2)CN1c1ccc(Cl)cc1 (stereo not drawn) [Compound 33] | 40 to 80%
O=C(O)C[C@H](NC(=O)c1ccc(Cl)cc1)c1nc(-c2ccc(OC(F)(F)F)cc2)no1 [Compound 81, (S)-3-(4-chlorobenzamide)-3-{3-[4-(trifluoromethoxy)phenyl]-1,2,4-oxadiazol-5-yl}propanoic acid] | 40 to 80%
COc1ccc(-c2noc(C3CC(=O)N(c4ccc(Cl)cc4)C3)n2)cc1 (stereo not drawn) [Compound 24, 1-(4-chlorophenyl)-4-{3-(4-methoxyphenyl)-1,2,4-oxadiazol-5-yl}pyrrolidin-2-one] | 40 to 80%
CN(Cc1ccccc1)C(=O)CCc1nc(-c2ccc3c(c2)OCCO3)no1 [Compound 16, N-benzyl-3-{3-(2,3-dihydrobenzo[b][1,4]dioxin-6-yl)-1,2,4-oxadiazol-5-yl}-N-methylpropanamide] | < 40%
O=C1CC(c2nc(-c3ccc(OC(F)(F)F)cc3)no2)CN1c1ccc(F)cc1 (stereo not drawn) [Compound 26, l-(4-fluorophenyl)-4-[3-{4-(trifluoro-methoxy)phenyl}-1,2,4-oxadiazol-5-yl]pyrrolidin-2-one] | 40 to 80%
O=C1CC(c2nc(-c3ccccc3OC(F)(F)F)no2)CN1c1ccc(Cl)cc1 (stereo not drawn) [Compound 67, 1-(4-chloro-phenyl)-4-[3-{2-(trifluoro-methoxy)phenyl}-1,2,4-oxadiazol-5-yl]pyrrolidin-2-one] | 40 to 80%
O=C1CC(c2nnc(-c3ccc(OC(F)(F)F)cc3)o2)CN1c1ccc(Cl)cc1 (stereo not drawn) [Compound 103, 1-(4-chlorophenyl)-4-{5-[4-(trifluoromethoxy)phenyl]-1,3,4-oxadiazol-2-yl}pyrrolidin-2-one] | 40 to 80%
O=C(NC(CNCCO)c1nnc(-c2ccc(OC(F)(F)F)cc2)o1)c1ccc(Cl)cc1 (stereo not drawn) [Compound 119, 4-chloro-N-(2-((2-hydroxyethyl)amino)-1-(5-(4-(trifluoro-methoxy)phenyl)-1,3,4-oxadiazol-2-yl)ethyl) benzamide] | 40 to 80%
O=S(=O)(N[C@@H](CO)c1nc(-c2ccc(OC(F)(F)F)cc2)no1)c1cccc(Cl)c1 [Compound 91, (S)-3-chloro-N-(2-hydroxy-1-[3-{4-(trifluoromethoxy)phenyl}-1,2,4-oxadiazol-5-yl]ethyl)benzenesulfonamide] | 40 to 80%

Continued, values first:

inhibition at 25 µM | SMILES
> 80% | O=C(N[C@@H](CO)c1nc(-c2ccc(C(F)(F)F)cc2)no1)c1ccc(Oc2ccccc2)cc1 [Compound 201, N-[(1S)-2-hydroxy-1-{3-[4-(trifluoromethyl)phenyl]-1,2,4-oxadiazol-5-yl}ethyl]-4-phenoxybenzamide]
< 40% | O=C(N[C@@H](CO)c1nc(-c2cccc(C(F)(F)F)c2)no1)c1c[nH]c2ccccc12 [Compound 243, N-[(1S)-2-hydroxy-1-{3-[3-(trifluoromethyl)phenyl]-1,2,4-oxadiazol-5-yl}ethyl]-1H-indole-3-carboxamide]
40 to 80% | O=C(N[C@@H](CO)c1nc(-c2n[nH]c3ccccc23)no1)c1ccc(F)cc1 [Compound 265, 4-fluoro-N-[(1S)-2-hydroxy-1-[3-(1H-indazol-3-yl)-1,2,4-oxadiazol-5-yl]ethyl] benzamide]
> 80% | O=C(N[C@@H](CO)c1nc(-c2cccc(C(F)(F)F)c2)no1)c1ccc(N2CCOCC2)cc1 [Compound 220]
> 80% | CN(C)c1ccc(-c2noc([C@H](CO)NC(=O)c3ccccc3)n2)cc1 [Compound 150, N-[(1S)-1-{3-[4-(dimethylamino)phenyl]-1,2,4-oxadiazol-5-yl}-2-hydroxyethyl] benzamide]
40 to 80% | O=C(N[C@@H](CO)c1nc(-c2ccc(C(F)(F)F)c(F)c2)no1)c1ccc(F)cc1 [Compound 217, 4-fluoro-N-[(1S)-1-{3-[3-fluoro-4-(trifluoromethyl)phenyl]-1,2,4-oxadiazol-5-yl}-2-hydroxyethyl] benzamide]
> 80% | O=C(N[C@@H](CO)c1nc(-c2ccc(C(F)(F)F)cc2)no1)C1CNc2ccccc2O1 (stereo partly drawn) [Compound 192, N-[(1S)-2-hydroxy-1-{3-[4-(trifluoromethyl)phenyl]-1,2,4-oxadiazol-5-yl}ethyl]-3,4-dihydro-2H-1,4-benzoxazine-2-carboxamide]
40 to 80% | O=C(N[C@@H](CO)c1nc(-c2csc(Cl)c2)no1)c1ccc(F)cc1 [Compound 227]
40 to 80% | O=C(N[C@@H](CO)c1nc(-c2cccs2)no1)c1ccc(F)cc1 [Compound 178, 4-fluoro-N-[(1S)-2-hydroxy-1-[3-(thiophen-2-yl)-1,2,4-oxadiazol-5-yl]ethyl]benzamide]
40 to 80% | O=C(NC(CO)c1nc(-c2ccc(C(F)(F)F)cc2)no1)c1cc2ccccc2[nH]1 (stereo not drawn) [Compound 182, N-(2-hydroxy-1-{3-[4-(trifluoromethyl)phenyl]-1,2,4-oxadiazol-5-yl}ethyl)-1H-indole-2-carboxamide]
40 to 80% | O=C(N[C@@H](CO)c1nc(-c2cccc(C(F)(F)F)c2)no1)c1ccc(F)c(Cl)c1 [Compound 242, 3-chloro-4-fluoro-N-[(1S)-2-hydroxy-1-{3-[3-(trifluoromethyl)phenyl]-1,2,4-oxadiazol-5-yl}ethyl]benzamide]
< 40% | O=C(N[C@@H](CO)c1nc(-c2ccc(OCC(F)(F)F)cc2)no1)c1ccc(F)cc1 [Compound 216]
< 40% | O=C(Nc1nc(-c2ccc(C(F)(F)F)cc2)no1)c1ccccc1 [Compound 174, N-{3-[4-(trifluoromethyl)phenyl]-1,2,4-oxadiazol-5-yl} benzamide]
< 40% | CCN(CC)CCOc1ccc(C(=O)N[C@@H](CO)c2nc(-c3ccc(OC(F)(F)F)cc3)no2)cc1 [Compound 171, 4-[2-(diethylamino)ethoxy]-N-[(1S)-2-hydroxy-1-{3-[4-(trifluoromethoxy)phenyl]-1,2,4-oxadiazol-5-yl}ethyl] benzamide]

Same assay, conditions: read-out: Inhibitory activity ABC evaluation

SMILES | inhibition at 25 µM
CCN(C)C(=O)Oc1ccc(-c2noc([C@H](CO)NC(=O)c3ccccc3)n2)cc1 [Compound 159] | < 40%

Source: US10538516B2, “Oxadiazole derivative and pharmaceutical containing same” (National Center for Geriatrics and Gerontology, priority 2015, dated 2020)
